Data reported in patent US20260055061A1, “HALOPHTHALIMIDE COMPOUNDS AND METHODS OF USE AGAINST TBI, INFLAMMATORY DISORDER, AUTOIMMUNE DISORDER, NEURODEGENERATIVE DISEASE OR VIRAL INFECTION” (The United States of America, as represented by the …, priority 2022, published 2026).

Key:
[1] = biological target: cereblon (CRBN/DDB1-CUL4A-Rbx1 complex) / BRD3 (Homo sapiens (Human), UniProt Q96SW2); test: Cereblon/BRD3 binding assay (AlphaScreen / FRET); settings: for cereblon binding (in words): cereblon/BRD3 binding FRET assay
Sequence of cereblon (CRBN/DDB1-CUL4A-Rbx1 complex) / BRD3 (Q96SW2 whole entry): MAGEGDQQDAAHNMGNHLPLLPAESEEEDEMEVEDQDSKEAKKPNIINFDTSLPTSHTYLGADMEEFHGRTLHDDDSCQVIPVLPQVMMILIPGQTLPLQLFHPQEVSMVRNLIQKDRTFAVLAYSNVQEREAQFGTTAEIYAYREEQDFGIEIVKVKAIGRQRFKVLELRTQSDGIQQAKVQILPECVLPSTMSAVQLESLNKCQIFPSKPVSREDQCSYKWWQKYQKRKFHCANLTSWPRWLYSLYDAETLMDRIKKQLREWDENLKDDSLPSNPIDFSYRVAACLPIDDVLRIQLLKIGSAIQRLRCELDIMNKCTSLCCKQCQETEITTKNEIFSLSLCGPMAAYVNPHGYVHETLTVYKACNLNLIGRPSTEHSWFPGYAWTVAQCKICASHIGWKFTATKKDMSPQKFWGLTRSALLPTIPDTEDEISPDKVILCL
Sequence of cereblon (CRBN/DDB1-CUL4A-Rbx1 complex) / BRD3 (Q16531 whole entry partner): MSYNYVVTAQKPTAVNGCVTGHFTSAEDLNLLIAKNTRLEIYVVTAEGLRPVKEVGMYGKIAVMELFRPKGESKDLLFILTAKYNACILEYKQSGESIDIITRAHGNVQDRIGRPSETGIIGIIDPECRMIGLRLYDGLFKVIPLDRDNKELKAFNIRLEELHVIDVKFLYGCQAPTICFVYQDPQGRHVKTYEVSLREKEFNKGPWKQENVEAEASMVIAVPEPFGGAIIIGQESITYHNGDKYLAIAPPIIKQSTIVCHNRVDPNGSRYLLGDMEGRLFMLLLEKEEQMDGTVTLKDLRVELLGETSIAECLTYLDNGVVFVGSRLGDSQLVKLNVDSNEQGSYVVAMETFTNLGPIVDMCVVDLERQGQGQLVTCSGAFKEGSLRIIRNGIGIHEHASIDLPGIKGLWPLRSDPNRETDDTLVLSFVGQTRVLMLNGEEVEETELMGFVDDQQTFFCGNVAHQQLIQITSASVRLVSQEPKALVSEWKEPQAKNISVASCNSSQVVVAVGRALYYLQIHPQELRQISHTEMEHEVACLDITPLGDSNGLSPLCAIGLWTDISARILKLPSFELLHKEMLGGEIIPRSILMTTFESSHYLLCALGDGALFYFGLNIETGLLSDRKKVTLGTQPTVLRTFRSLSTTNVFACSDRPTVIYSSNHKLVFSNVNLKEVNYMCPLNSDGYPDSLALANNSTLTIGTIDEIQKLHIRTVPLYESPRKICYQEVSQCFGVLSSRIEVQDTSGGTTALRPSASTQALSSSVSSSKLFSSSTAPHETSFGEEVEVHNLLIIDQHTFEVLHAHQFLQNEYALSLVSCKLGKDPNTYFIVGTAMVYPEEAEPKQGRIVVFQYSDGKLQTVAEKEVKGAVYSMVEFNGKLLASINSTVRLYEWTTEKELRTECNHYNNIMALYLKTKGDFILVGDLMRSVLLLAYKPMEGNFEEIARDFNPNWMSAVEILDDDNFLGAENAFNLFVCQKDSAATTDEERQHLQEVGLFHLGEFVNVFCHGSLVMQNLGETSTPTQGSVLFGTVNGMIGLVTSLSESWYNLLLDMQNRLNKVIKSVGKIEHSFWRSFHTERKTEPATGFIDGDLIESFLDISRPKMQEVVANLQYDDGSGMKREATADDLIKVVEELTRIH
Sequence of cereblon (CRBN/DDB1-CUL4A-Rbx1 complex) / BRD3 (Q13619 whole entry partner): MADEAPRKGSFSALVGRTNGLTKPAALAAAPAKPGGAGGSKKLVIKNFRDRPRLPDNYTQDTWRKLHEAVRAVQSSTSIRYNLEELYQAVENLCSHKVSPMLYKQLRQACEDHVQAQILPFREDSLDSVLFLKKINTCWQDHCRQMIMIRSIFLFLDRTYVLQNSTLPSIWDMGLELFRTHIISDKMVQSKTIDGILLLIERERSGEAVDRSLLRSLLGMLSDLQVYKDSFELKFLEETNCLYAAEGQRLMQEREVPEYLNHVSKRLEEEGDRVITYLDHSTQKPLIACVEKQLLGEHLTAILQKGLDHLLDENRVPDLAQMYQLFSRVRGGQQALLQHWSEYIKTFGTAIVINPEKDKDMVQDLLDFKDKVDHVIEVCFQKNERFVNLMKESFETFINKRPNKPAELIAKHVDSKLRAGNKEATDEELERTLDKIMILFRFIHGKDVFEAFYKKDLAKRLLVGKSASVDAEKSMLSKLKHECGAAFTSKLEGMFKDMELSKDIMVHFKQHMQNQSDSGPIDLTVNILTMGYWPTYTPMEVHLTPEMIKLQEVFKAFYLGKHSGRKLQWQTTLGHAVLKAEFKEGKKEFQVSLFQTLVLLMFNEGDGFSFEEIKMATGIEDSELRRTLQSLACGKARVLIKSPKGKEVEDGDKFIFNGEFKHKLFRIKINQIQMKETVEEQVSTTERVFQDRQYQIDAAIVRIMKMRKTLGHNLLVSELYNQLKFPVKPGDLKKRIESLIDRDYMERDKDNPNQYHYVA
Sequence of cereblon (CRBN/DDB1-CUL4A-Rbx1 complex) / BRD3 (P62877 whole entry partner): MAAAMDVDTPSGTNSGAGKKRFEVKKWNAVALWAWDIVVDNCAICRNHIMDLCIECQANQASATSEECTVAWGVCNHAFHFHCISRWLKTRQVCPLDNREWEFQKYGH
Method: After 30 min of incubation with shaking at room temperature, AlphaLISA anti-FLAG Acceptor and Alpha Glutathione Donor beads (PerkinElmer) were sequentially added and then incubated for 1 hr at room temperature for each of the added chemicals. Alpha counts were thereafter read on a Synergy Neo2 (BioTek) for the analysis. Relative activity or inhibition was calculated as the highest value, which was set to 100%, and the lowest value was set to 0% after subtraction of the “blank value” from all readings.
After 30 min of incubation with shaking at room temperature, AlphaLISA anti-FLAG Acceptor and Alpha Glutathione Donor beads (PerkinElmer) were sequentially added and then incubated for 1 h at room temperature for each of the added chemicals. Alpha counts were thereafter read on a Synergy Neo2 (BioTek) for the analysis. The relative activity of the alpha signal was calculated after subtraction of the “blank value” from all readings, and the value of the vehicle group was then set as 100%.

SALL4 = SALL4 (Homo sapiens (Human), UniProt Q9UJQ4); test: SALL4 expression in Tera-1 cells (Western blot); assay type: cell-based; settings: for SALL4 levels: human Tera-1 cells, 0.01, 0.1, 1 μM, relative to GAPDH
Method: (§1) For Western blot analysis, total proteins were extracted using RIPA buffer (ThermoFisher Scientific, Waltham, MA) containing Halt Protease Inhibitor Cocktail (ThermoFisher Scientific). […] After incubation at 4° C. overnight, the following HRP conjugated secondary antibodies were used: (i) goat anti-rabbit IgG (ThermoFisher Scientific) for ikaros and aiolos, and (ii) goat anti-mouse IgG (ThermoFisher Scientific) for SALL4 and GAPDH. […] Antigen-antibody complexes were detected using enhanced chemiluminescence (Thermo, iBright CL1500).
(§2) Specifically, MM1.S cells were obtained from ATCC (Manassas, VA, USA), grown in RPMI media supplemented with 10% FBS, penicillin 100 U/mL, and streptomycin […], and maintained at 37° C. and 5% CO2.
as §1, with “MA, USA)” for “MA)”, “Scientific). Thereafter, the proteins were separated by gel electrophoresis and then transferred to polyvinylidene difluoride (PVDF) membranes (ThermoFisher Scientific), as described previously.” for “Scientific).”, “HRP-conjugated” for “HRP conjugated”, “Ikaros” for “ikaros”, “Aiolos,” for “aiolos,”, “(ThermoFisher Scientific,” for “(Thermo,”

Aiolos = Aiolos (Homo sapiens (Human), UniProt Q9UKT9); test: Aiolos degradation in MM1.S cells (Western blot); assay type: cell-based; settings: 1 μM, relative to GAPDH
Method: as §1, §2
(§3) For Western blot analysis, total proteins were extracted using RIPA buffer (ThermoFisher Scientific, Waltham, MA, USA) containing Halt Protease Inhibitor Cocktail (ThermoFisher Scientific). Thereafter, the proteins were separated by gel electrophoresis and then transferred to polyvinylidene difluoride (PVDF) membranes (ThermoFisher Scientific), as described previously. […] Antigen-antibody complexes were detected using enhanced chemiluminescence (ThermoFisher Scientific, iBright CL1500).

Ikaros = Ikaros (Homo sapiens (Human), UniProt Q13422); test: Ikaros degradation in MM1.S cells (Western blot); assay type: cell-based; settings: 1 μM, relative to GAPDH
Method: as §1, §2, §3

[2] = tested on: LPS-induced nitrite in RAW 264.7 cells; test: LPS-induced nitrite production in RAW 264.7 cells (Griess reagent / fluorometric kit); assay type: cell-based, mouse; settings: LPS-challenged RAW 264.7 cells, percentage of vehicle control value (control = 100%), mean ± S.E.M., n = 3
Method: Nitrite ion detection in drug treated […] cell culture media: To measure the levels of nitrite ion NO2—) the Griess Reagent System (Promega, Madison, WI, Cat #G2930) was utilized. The protocol followed was that recommended by the manufacturer. In brief a NO2— ion standard curve was prepared in culture media of the same composition to that used for the cell culture study. The concentration range of the standard curve was from 1.5 µM to 100 µM. Equal volumes (50 μL) of standards and unknown samples were added to clear 96 well plates in duplicate. Then 50 μL of sulfanilamide solution was added to each well and the plate was covered and incubated in the dark for 10 min. After the incubation period 50 μL of N-1-napthylethylenediamine dihydrochloride solution was added to each well and the plate was incubated in dark for a further 10 min. After this incubation, the plate was read at 550 nm on a SPECTRAmax PLUS plate reader and the absorbances were used to generate a NO2— standard curve and the NO2— ion levels of the unknown samples are determined using SoftMax Pro V5, Molecular Devices.
Most neurons are highly vulnerable to RNS and ROS. Nitric oxide (NO) is one of RNSs, which is very short lived and cannot be readily measured. However, nitrite is a stable end product of nitric oxide metabolism. Therefore, nitrite acts as a surrogate measure of NO. The Griess Reagent System (Promega Corporation, Madison, WI) can be applied to measure nitrite levels in culture media following the manufacturer's protocol, and this system was used in the present study as it is a more sensitive assay compared to quantifying actions on TNF-α by ELISA assay. […] This challenge induces high level of TNF-α protein accompanied by a robust generation of nitrite.
(§4) Cells were propagated as described by ATCC guidelines.

TNF-α = test: LPS-induced TNF-α production in RAW 264.7 cells (ELISA); assay type: cell-based, mouse; settings: LPS-challenged RAW 264.7 cells, percentage of vehicle control value (control = 100%), mean ± S.E.M., n = 3
Method: Enzyme-linked immunosorbent assay for TNF-α protein: Media TNF-α levels were measured by use of the Biolegend ELISA MAX Set Delux ELISA (#430904). The protocol used was that recommended by the manufacturer. In brief, a day prior to performing the assay, a 96 well plate was coated with a capture antibody directed against TNF-α. The following day the assay plate was washed and blocked with the kit blocking agent for 1 h while being mixed on a plate shaker at 200 rpm (all incubations were mixed at 200 rpm unless stated otherwise). A TNF-α protein standard curve was prepared in the assay diluent following the kit instructions and unknown media samples were likewise diluted in the same assay diluent. After blocking, the plate was washed and then both the standards and unknown media samples were added to the plate in duplicate. The standards and unknown samples were incubated for 2 h. After the incubation, the plate was washed and then the biotin labeled detection antibody was added to each well and incubated for a further 1 h. After this incubation, the avidin-HRP conjugate complex was added to each well and incubated for 30 min. The plate was washed and the chromogenic substrate 3,3′,5,5′-tetramethylbenzidine solution was added to each well. At this point the plate was covered and incubated in the dark for 15 min, with no mixing. After 15 min the chromogenic reaction was stopped by the addition of 2 N H2SO4 and the absorbance was read at 450 nm and for background subtractions at 570 nm, on a SPECTRAmax PLUS plate reader. The absorbances were used to generate a TNF-α a protein standard curve and the protein levels in the unknown samples were determined using SoftMax Pro V5, Molecular Devices.
as §4

SARS-CoV-2 = test: Anti-SARS-CoV-2 activity (FIG. 6); assay type: cell-based
[3] = Cytotoxicity in the anti-SARS-CoV-2 evaluation (FIG. 6); assay type: cell-based; settings: 25 μM
RAW 264.7 cells = test: Cell viability of drug treated RAW 264.7 cells (CellTiter 96 AQueous One, MTS); settings: RAW 264.7 cells, percentage of vehicle control value, mean ± S.E.M., n = 3
Method: Assessments of drug anti-TNF-α and nitric oxide generation in RAW 264.7 cells: RAW 264.7 cells were purchased from ATCC Manassas, VA, USA). The cells were grown in DMEM media (Invitrogen, DMEM, high glucose, GlutaMAX Supplement, pyruvate, #10569-010) supplemented with 10% FBS (Invitrogen, Fetal Bovine Serum, qualified, heat inactivated, #16140-071) with penicillin and streptomycin (Invitrogen, Penicillin-Streptomycin (10,000 U/mL), #15140-122) and were maintained at 37 C and 5% CO2. The cells were grown to 75%-85% confluence on 10 cm plates (corning-Fal-con, #353003) following the protocol described by ATTC. to assess for drug effects on LPS-induced markers of inflammation, namely TNF-α protein and nitrite ion levels (NO2, a stable end-product of nitric oxide metabolism) cells were seeded into 24 well (VWR, #10062-896) at a density of 200×10^3 cells per well. On each plate there was one blank well where no cells were added yet culture media in the well was treated similarly to wells with cells (n=1). The blank well media was used for background subtraction for various downstream assays. twenty-four hours after seeding the plate the seeding media was replaced with fresh media. Two hours after this the cells were exposed to a range of concentrations of drug test-compound(s) dissolved in 100% tissue culture grade dimethyl sjloxide (DMSO, SIGMA #D2650). Drug stocks were prepared in a 200 times more concentrated stock in DMSO. The final concentration of DMSO added to the cells was 0.5%. The effects of each concentration of drug were assessed in 4 wells per concentration in the 24 well plate (n=3 #-4). On each plate one set of wells were assigned as drug-vehicle control (i.e. DMSO), one test compound was assessed on one 24 well plate. […] One hour after the drugs were added the cells were challenged with lipopolysaccharide (LPS, SIGMA, serotype 055:B5) at a final concentration of 60 ng/ml. Twenty to twenty-four hours after the cells were challenged with LPS the culture media was collected and utilized for the measurement of markers of inflammation.
Cellular viability assessment of drug treated RAW 264.7 cells: RAW 264.7 cell viability was determined by use of the CellTiter 96 AQueous One Solution Cell Proliferation Assay (Promega, Madison, WI). Changes in cellular health status were determined by use of indirect measures related to the formation of a colored tetrazolium dye product that can be measured spectrophotometrically at 490 nm. An increase in absorbance at 490 nm is indicative of an increase in numbers of healthy cells; similarly a reduction in absorbance is indicative of a reduction of healthy cells. After the culture media was harvested for use in TNF-α and NO2— ion assays, the media was replaced with 0.5 mL of fresh media plus 100 μL of the cell viability reaction mixture. After a 20-30 min incubation at 37° C. with 5% CO2 the absorbance at 490 nm was obtained using an infinite M200 PRO plate reader (TECAN, USA).
Statistical analyses for RAW-derived assays: Data are expressed as a percentage change from the DMSO-vehicle control measurements. Measurements are expressed as mean±standard errors, where the n number represents the number of wells in a 24 well plate. Due to the presence of one blank control well on each plate, for some drug concentrations the n number is 3 # and not 4. Statistical comparisons were undertaken by use of a One-Way ANOVA with appropriate Bonferroni corrections for multiple comparisons, as required (GraphPad InStat Version 3.05). P values of <0.05 are considered to be of statistical significance.
RAW 264.7 cell culture: RAW 264.7 mouse cells were purchased from ATCC (Manassas, VA, USA) and grown in DMEM media supplemented with 10% FCS, penicillin 100 U/ml and streptomycin 100 μg/ml (ThermoFisher Scientific, Asheville, NC, USA). The cells were maintained at 37° C. and 5% CO2.

CCI-induced TBI mice = test: CCI mouse model of TBI: DigiGait gait analysis; assay type: in vivo
Method: In vivo model of TBI: Mice were anesthetized with 2.5% tribromoethanol (Avertin: 250 mg/kg; Sigma, St. Louis, MO, USA) and placed in a stereotaxic frame (Kopf Instruments, Tujunga, CA, USA). A 4 mm craniotomy was performed using sterile procedures; the craniotomy point was selected midway between the lambda and bregma sutures and laterally midway between the central suture and the temporalis muscle. The skull fragment was then carefully removed without disruption of the underlying dura. Prior to injury induction, the tip of the impactor was angled and kept perpendicular to the exposed cortical surface. The mouse CCI instrument consisted of an electromagnetic impactor, Impact One (Leica Biosystems Inc., Buffalo Grove, IL, USA) that allows independent alteration of injury severity by controlling contact velocity and the level of cortical deformation. In these experiments, the contact velocity was set at 5.0 m/sec, the dwell time was set at 0.2 s and the deformation depth was set at 2 mm to produce a moderate TBI. The injury site was allowed to dry prior to suturing the wound. During surgery and recovery, the body temperature of the animals was maintained at 36-37° C. by using a heating pad. […] Mice were randomized following CCI to treatment with either of two doses of TFBP (16.25 mg/kg and 32.5 mg/kg, i.p.) or saline, and were dosed at 1 and 24 hr after the injury.
Behavioral assessment for motor functions and coordination: Behavioral tests were performed 1 week and 2 weeks after injury, to assess changes in motor functions and coordination. All tests were performed during the animals' light phase; cages were transported to testing rooms at least 30 min prior to testing.
Gait analysis: For the gait analysis, mice were tested on a fixed-speed treadmill apparatus (DigiGait; Mouse Specifics). Mice were habituated to the apparatus for 1 min, and then given a 1-min run at 5 cm/s. Following a 1-min rest, the treadmill speed was increased to 15 cm/s. Video was collected at high speed from a ventrally placed camera, and 3-5 s of representative gait video was selected by an experienced but blinded user for automated analysis.
In Vivo Model of TBI: TBI studies were conducted in 8-week-old male C57/BL6 mice (25-30 g; n=20), Jackson Laboratory, Bar Harbor, Maine USA. Mice were randomly assigned to four groups prior surgery, CMC+Sham, CMC+TBI, compound 30 (Low dose (LD), 14.78 mg/kg, prepared in 1% CMC in PBS)+TBI, compound 30 (High dose (HD), 29.57 mg/kg)+TBI, and evaluated the effects of compound 30 on TBI. Mice were assessed for gait function and motor coordination, balance function. Animals were subsequently evaluated for cellular changes using histological and immunohistochemistry staining. […]

cereblon binding (in words) [1] | SALL4 levels (SALL4) | Aiolos levels (Aiolos) | Ikaros levels (Ikaros) | IC50 ([1]; Example 6, FIG. 28A) [nM] | Compound | SALL4 expression levels (SALL4; Tera-1 cells, 1 μM) | nitrite level, % of vehicle control ([2]; 1 μM) [%] | nitrite level, % of vehicle control ([2]; 10 μM) [%] | TNF-α % Δ (TNF-α; 1 μM) [%] | TNF-α % Δ (TNF-α; 10 μM) [%] | SARS-CoV-2 inhibitory activity (SARS-CoV-2) | cytotoxicity [3] | Cell Viability % Δ (RAW 264.7 cells; 1 μM) [%] | Cell Viability % Δ (RAW 264.7 cells; 10 μM) [%] | gait % of brake phase (CCI-induced TBI mice; high dose 29.57 mg/kg) | gait propel time and % of propel phase (CCI-induced TBI mice; high dose 29.57 mg/kg) | gait brake time (CCI-induced TBI mice; low dose 14.78 mg/kg, 1 and 2 weeks after TBI)
potently bind to cereblon | dramatically lowerered | dramatically lowerered | dramatically lowerered |  | Nc1cccc2c1C(=O)N(C1CCC(=O)NC1=O)C2=O (racemic) [Pomalidomide, pomalidomide, reference compound] | induced a decrease in expression levels of SALL4 |  |  |  |  |  |  |  |  |  |  | 
 |  |  |  |  | C[C@@H]1[C@@H](N2C(=O)c3c(F)ccc(F)c3C2=O)C[C@H]2C[C@@H]1C2(C)C [Compound 18, 4,7-Difluoro-2-((1S,2S,3S,5R)-2,6,6-trimethylbicyclo[3.1.1]heptan-3-yl) isoindoline-1,3-dione] |  | 96 ± 4 | 71 ± 4 | 101 ± 5 | 89 ± 5 | potent SARS-CoV-2 inhibitory activity | preliminarily acceptable cytotoxicity | 102 ± 4 | 76 ± 5 |  |  | 
potently bind to cereblon | no significant effect | no significant effect | no significant effect | 2660 | 4-amino-7-fluoro-2-(2-oxo-6-thioxopiperidin-3-yl)-3-thioxoisoindolin-1-one [Compound 30] |  |  |  |  |  |  |  |  |  | impairment of brake phase was ameliorated | significantly mitigate propel time and % of propel phase | significantly mitigated the deficit of brake time
